Assays:
[1] = Cleanout test (residue in polyethylene bottles, acetonitrile extract, HPLC); assay type: physicochemical; conditions: for Cleanout rating (concentration of thifensulfuron-methyl in the acetonitrile solution): lower rating = more effective cleanout
Description: The test was conducted by dispersing in water a sample to produce a concentration that is normally used when applying the herbicide: 25% thifensulfuron-methyl. The sample was added to tap water (300 mL) in a 400 mL beaker and magnetically stirred for 2 minutes. The mixture was then stirred for 2 minutes, whereupon the resulting dispersion was dispensed in three 100 mL aliquots to 4-oz (118 mL) polyethylene bottles. The bottles were capped, inverted twice and allowed to stand overnight.
After standing overnight, each individual bottle was inverted twice and the liquid contents were then poured out. Tap water (10 mL) was added and the bottle was inverted until all sediment was re-suspended, whereupon the contents were poured out. Tap water (100 mL) was added and the bottle was inverted twice and then allowed to stand undisturbed for 10 minutes. The bottle was inverted twice more and the contents were poured out. Acetonitrile (10 mL) was added to the bottle to extract any remaining material. The acetonitrile solution was analyzed by reversed-phase liquid chromatography with UV detection. The cleanout rating (the concentration of thifensulfuron-methyl herbicide in the acetonitrile solution) is reported in % in Table 6 below.

[2] = Viscosity (stated in words, no method given); assay type: physicochemical

| Structure (SMILES) | Cleanout rating (concentration of thifensulfuron-methyl in the acetonitrile solution) ([1]; OD formulation) | Cleanout rating (concentration of thifensulfuron-methyl in the acetonitrile solution) ([1]; SG formulation) | Cleanout rating (concentration of thifensulfuron-methyl in the acetonitrile solution) ([1]; WG formulation) | Viscosity, in words ([2]; listed as thifensulfuron-methyl in amorphous state) | Cleanout properties, in words ([1]; compared with known amorphous thifensulfuron-methyl product) | Viscosity, in words ([2]; listed as crystalline modification I of thifensulfuron-methyl) |
| --- | --- | --- | --- | --- | --- | --- |
| COC(=O)c1sccc1S(=O)(=O)NC(=O)Nc1nc(C)nc(OC)n1 [Amorphous thifensulfuron-methyl, methyl 3-(4-methoxy-6-methyl-1,3,5-triazin-2-ylcarbamoylsulfamoyl)thiophene-2-carboxylate, reference compound] | 26% | 10% | 13% | highly viscous | – | – |
| COC(=O)c1sccc1S(=O)(=O)NC(=O)Nc1nc(C)nc(OC)n1 [Thifensulfuron-methyl, crystalline modification I] [methyl 3-(4-methoxy-6-methyl-1,3,5-triazin-2-ylcarbamoylsulfamoyl)thiophene-2-carboxylate] | 5% | 0.1% | 2% | – | markedly superior cleanout properties | significant decrease in its viscosity |

Source: patent US9663501B1, “Process for preparing a novel crystalline form of thifensulfuron-methyl and use of the same” (ROTAM AGROCHEM INTERNATIONAL COMPANY LIMITED, priority 2015, dated 2017)
